Results as given in paper PMC4567917 (Bioorganic chemistry, 2015).
Like-named read-outs stand apart in the source and are kept apart here. Values belong to the molecule of their own block, whether it stands above or below them. Non-standard residues stand in square brackets, D forms with d. No end group written: not given here. *: point of attachment. Biotin = O=C1N[C@H]2[C@H](CS[C@H]2CCCCC(=O)*)N1; Dap = NC[C@H](N)C(=O)O; Ahx = NCCCCCC(=O)O

Columns and labels:
mouse GOAT [1] = target: T1, mouse GOAT (Mus musculus, UniProt P0C7A3); experiment: Microsomal ghrelin octanoyltransferase assay; details: for Km: read-out: Km (apparent) for octanoyl-CoA; for Km / Vmax (apparent) for octanoyl-CoA / Vmax (apparent): 50 μM palmitoyl-CoA, 1 min at 30°C; for Km / Vmax (apparent) for octanoyl-CoA: 25 μg microsome protein; for Vmax (apparent): ghrelin substrate varied, 25 μg microsome protein (2 ng GOAT); for Vmax (apparent) / maximum reaction rate, fold lower than for the natural Ser analogs: 1 μM octanoyl-CoA; for maximum reaction rate, fold lower than for the natural Ser analogs: relative to the Ser3 analog
T1 sequence (P0C7A3 1-435): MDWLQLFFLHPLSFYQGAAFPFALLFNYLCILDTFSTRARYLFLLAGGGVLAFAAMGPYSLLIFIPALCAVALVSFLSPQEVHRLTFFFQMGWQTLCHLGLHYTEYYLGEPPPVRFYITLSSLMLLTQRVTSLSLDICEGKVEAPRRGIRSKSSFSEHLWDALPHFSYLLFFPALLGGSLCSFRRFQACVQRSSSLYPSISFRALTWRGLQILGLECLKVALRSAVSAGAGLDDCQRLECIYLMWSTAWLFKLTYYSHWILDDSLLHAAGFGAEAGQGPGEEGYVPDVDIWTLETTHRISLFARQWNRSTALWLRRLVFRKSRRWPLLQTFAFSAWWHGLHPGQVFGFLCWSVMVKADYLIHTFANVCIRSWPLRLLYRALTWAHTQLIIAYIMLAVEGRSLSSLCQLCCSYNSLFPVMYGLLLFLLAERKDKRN

GOAT = details: ref [33], cited from earlier work; for Km: read-out: published Km, published values
[2] = cited from earlier work
mouse GOAT [3] = target: T1, mouse GOAT; experiment: Ghrelin octanoyltransferase assays at varying pH; format: biochemical; details: 7.5 μM and 100 μM substrate, 1 min, Bis-Tris propane pH 6–9

Molecule: N[C@@H](CO)C(=O)O [Ser]
sidechain pKa (ROH to RO-) ([2]; ref [37]): ~ 13

Molecule: NCC(N)C(=O)O (stereo not shown) [amino-Ala, 2,3-diaminoproprionic acid]
sidechain pKa (RNH3+ to RNH2) ([2]; peptide-incorporated residue, ref [36]): ~ 8

B1: proghrelin-His8: proghrelin with His8 tag; proghrelin is likely the natural substrate for GOAT (protein, UniProt Q9UBU3 24-117, looked up)
pro-form: GSSFLSPEHQRVQQRKESKKPPAKLQPRALAGWLRPEDGGQAEGAEDELEVRFNAPFDVGIKLSGVQYQQHSQALGKFLQDILWEEAKEAPADK
modifications: pro-form His8 tag
Km (GOAT): 6 µM

More lines, main results first:

Km (mouse GOAT [1]; vs 10 μM Ghrelin27): 0.44 ± 0.04 µM
Km (mouse GOAT [1]; vs 80 μM Ghrelin10): 0.81 ± 0.04 µM
Vmax (apparent) for octanoyl-CoA (mouse GOAT [1]; vs 10 μM Ghrelin27): 250 ± 8 nmol/min/mg
Vmax (apparent) for octanoyl-CoA (mouse GOAT [1]; vs 80 μM Ghrelin10): 190 ± 4 nmol/min/mg
Molecule: CCCCCCCC(=O)SCCNC(=O)CCNC(=O)[C@H](O)C(C)(C)COP(=O)(O)OP(=O)(O)OC[C@H]1O[C@@H](n2cnc3c(N)ncnc32)[C@H](O)[C@@H]1OP(=O)(O)O [Octanoyl-CoA, reference compound]
Km (GOAT): 0.6 µM
microsomal octanoyl-CoA hydrolysis (GOAT; with 50 μM palmitoyl-CoA, under the conditions of the assay): < 25%

Vmax (apparent) (mouse GOAT [1]): 74 ± 8 nmol/min/mg
maximum reaction rate, fold lower than for the natural Ser analogs (mouse GOAT [1]): approximately 2 fold
variation of octanoylation rate across pH 6–9 (mouse GOAT [3]): ≤ 2 fold
Molecule: GS(Dap)FLSPEHQ(Ahx)K(Biotin)G [Dap3-Ghrelin10]

Vmax (apparent) (mouse GOAT [1]): 230 ± 10 nmol/min/mg
fold lower apparent Km relative to Ghrelin10 (mouse GOAT [1]; relative to Ghrelin10): 10 fold
Molecule: GSSFLSPEHQRVQQRKESKKPPAKLQPK (Biotin)G (GSSFLSPEHQRVQQRKESKKPPAKLQPK-{Gly(Biotin)}; not fully specified) [Ghrelin27]

Vmax (apparent) (mouse GOAT [1]): 160 ± 10 nmol/min/mg
fold higher apparent Km than Ghrelin27 (mouse GOAT [1]; relative to Ghrelin27): ~ 10 fold
variation of octanoylation rate across pH 6–9 (mouse GOAT [3]): ≤ 2 fold
Molecule: GSSFLSPEHQ[Ahx]K(Biotin)G [Ghrelin10]

Vmax (apparent) (mouse GOAT [1]): 85 ± 5 nmol/min/mg
maximum reaction rate, fold lower than for the natural Ser analogs (mouse GOAT [1]): approximately 2 fold
Molecule: GS[Dap]FLSPEHQRVQQRKESKKPPAKLQPK(Biotin)G [Dap3-Ghrelin27]
